Data as given in patent US8361968B2 (Takeda Pharmaceutical Company Limited, priority 2002, dated 2013).
Square brackets hold non-standard residues; d marks the D form. Peptide text beside a SMILES is read from it. * marks the point of attachment. Propanoyl(3-(3-pyridyl)) = O=C(CCc1cccnc1)*; Arg(Me) = CNC(=N)NCCC[C@H](N)C(=O)O; d4Pal = N[C@H](Cc1ccncc1)C(=O)O; azaGly = NNC(=O)O

Legend:
hOT7T175 = hOT7T175 (Homo sapiens, UniProt Q969F8, L364H); test: Intracellular Ca ion level-increasing activity using FLIPR in hOT7T175/CHO; format: cell-based; parameters: expressed in transfected cells; host or cells: CHO/dhfr- cells, obtained from ATCC; conditions: relative, Metastin (1-54) = 1
immature rat = test: Induction of ovulation in immature rat using metastin derivatives; format: in vivo, rats; conditions: for number of oocytes in average per rat / dose to be administered for induction of ovulation equivalent to hCG: eCG-primed immature female rats; for dose to be administered for induction of ovulation equivalent to hCG: s.c.
Protocol: Equine chorionic gonadotropin (eCG, serotropin, Dainippon Pharmaceutical Co., Ltd.) was dissolved in saline (Otsuka Pharmaceutical Co., Ltd.) in a concentration of 100 IU/mL. Using a 1 mL tuberculin syringe with a 26-gauge needle (both by Terumo Co., Ltd.), eCG was subcutaneously injected into the dorsal area of female Wistar rats of 23 days old after birth (Charles River Japan, Inc.) in a dose of 10 IU/animal, during 9:00 to 10:00 AM. As shown below, the animal was grouped 47 to 48 hours after the eCG injection and the drugs were given to these groups, respectively.
Group B (5 rats): Compound No. 305 was dissolved in saline at 33.3 nmol/mL and the solution was subcutaneously injected into the back in a dose of 6.7 nmol/animal.
Group C (5 rats): Compound No. 305 was dissolved in saline at 10.0 nmol/mL and the solution was subcutaneously injected into the back in a dose of 2.0 nmol/animal.
Group D (5 rats): Compound No. 322 was dissolved in saline at 33.3 nmol/mL and the solution was subcutaneously injected into the back in a dose of 6.7 nmol/animal.
Group E (5 rats): Compound No. 322 was dissolved in saline at 10.0 nmol/mL and the solution was subcutaneously injected into the back in a dose of 2.0 nmol/animal.
Group F (6 rats): Saline was subcutaneously injected into the back in a dose of 200 μL/animal.
After administration of these drugs, the animal was sacrificed by decapitation after 24 to 25 hours to recover blood, bilateral oviducts and uterus. In collecting the blood, 90 μL of 10 KIU/mL aprotinin solution (Trasylol, Bayer) containing 3 mg/ml EDTA had been previously filled in a tube for recovery to prevent blood clotting. After blood recovery, the blood was thoroughly blended and the mixture was centrifuged at 2,000 G for 25 minutes. The supernatant was recovered and used as a plasma sample.
The number of oocytes was counted by referring to the method described in Eur. J. Endocrinol., 138, 594-600 (1998). That is, where retained oocytes in the oviducal ampulla were confirmed by stereomicroscopic observation of the oviduct, the ampulla was punctured with a 27-gauge syringe needle (Terumo) to retrieve the oocytes. After granulosa cells surrounding the oocytes were removed by trypsin treatment, the number of oocytes was counted. Where the retained oocytes in the oviducal ampulla were not confirmed by stereomicroscopic observation of the oviduct, a 27-gauge syringe needle with the polished tip was inserted into the tubal ostium and more than 400 μL of saline was flushed into the oviduct and uterine for rinsing. Then, the presence or absence of oocytes in the effluent was observed.

hOT7T175, sequence (Q969F8 whole entry L364H): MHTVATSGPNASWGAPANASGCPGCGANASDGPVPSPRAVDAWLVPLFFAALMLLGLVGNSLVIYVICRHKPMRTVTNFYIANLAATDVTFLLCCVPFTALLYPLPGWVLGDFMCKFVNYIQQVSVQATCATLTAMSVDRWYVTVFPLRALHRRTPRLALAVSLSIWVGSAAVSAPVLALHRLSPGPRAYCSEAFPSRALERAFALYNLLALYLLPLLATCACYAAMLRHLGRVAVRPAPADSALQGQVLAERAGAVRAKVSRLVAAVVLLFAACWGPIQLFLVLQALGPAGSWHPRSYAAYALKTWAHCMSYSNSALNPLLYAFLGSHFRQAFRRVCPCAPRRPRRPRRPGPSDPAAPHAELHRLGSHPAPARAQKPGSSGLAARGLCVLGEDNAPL

Row | SMILES | Specific Activity (intracellular Ca ion level-increasing activity) (hOT7T175) | level of estradiol contained in plasma (immature rat; 2.0 nmol/animal s.c. (FIG. 21)) | level of progesterone in blood (immature rat; 2.0 nmol/animal s.c. (FIG. 22)) | level of estradiol contained in plasma (immature rat; 6.7 nmol/animal s.c. (FIG. 21)) | level of progesterone in blood (immature rat; 6.7 nmol/animal s.c. (FIG. 22)) | number of oocytes in average per rat (immature rat; 2.0 nmol/animal s.c.) [oocytes] | number of oocytes in average per rat (immature rat; 6.7 nmol/animal s.c.) [oocytes] | dose to be administered for induction of ovulation equivalent to hCG (immature rat) | rats ovulated (immature rat; 2.0 nmol/animal s.c.)
1 | CNC(=N)NCCC[C@H](NC(=O)[C@H](CC(C)C)NC(=O)NNC(=O)[C@H](Cc1ccccc1)NC(=O)[C@H](CO)NC(=O)[C@H](CC(N)=O)NC(=O)[C@@H](Cc1ccncc1)NC(=O)[C@H](N)Cc1ccc(O)cc1)C(=O)N[C@@H](Cc1ccccc1)C(N)=O [Compound No. 305, D-Tyr-D-Pya(4)-Asn-Ser-Phe-AzaGly-Leu-Arg(Me)-Phe-NH2] (H-[dY][d4Pal]NSF[azaGly]L[Arg(Me)]F-NH2) | 5 | no difference | less than a half of the level in Group A | no difference | less than a half of the level in Group A | 29.4 | 32.6 | at least 2.0 nmol/animal | –
2 | CNC(=N)NCCC[C@H](NC(=O)[C@H](CC(C)C)NC(=O)NNC(=O)[C@H](Cc1ccccc1)NC(=O)[C@H](CO)NC(=O)[C@H](CC(N)=O)NC(=O)CCc1cccnc1)C(=O)N[C@@H](Cc1ccccc1)C(N)=O [Compound No. 322, 3-Pyridylpropionyl-Asn-Ser-Phe-AzaGly-Leu-Arg(Me)-Phe-NH2] ({Propanoyl(3-(3-pyridyl))}-NSF[azaGly]L[Arg(Me)]F-NH2) | 1 | tendency to show a higher level in rats with no ovulation induction | very low level | no difference | less than a half of the level in Group A | 11.6 | 29.6 | at least 6.7 nmol/animal | 3 out of 5
